Assays:
[1] = system: HDQ-P1 cells, full-length p53; assay: p53 read-through assay with steroids (western blotting, FIG. 4); assay type: cell-based, human
Description: HDQ-P1 cells were seeded at 100,000 cells per well of TC-treated 6-well plates. The next day, the medium was replaced with fresh medium containing compounds to be tested and were incubated for 48 to 96 h. The medium was removed by aspiration, cell monolayers were rinsed with 1 ml ice-cold PBS. Cells were lysed in 80 μl lysis buffer (20 mM Tris-HCl pH 7.5, 150 mM NaCl, 1 mM EDTA, 1 mM EGTA, 1% (v/v) Triton […], 2.5 mM sodium pyrophosphate, 1 mM beta-glycerophosphate supplemented with fresh 1 mM Na3VO4, 1 mM dithiothreitol and 1× complete protease inhibitor cocktail (Roche Molecular BiochemicalsTM)). Lysates were pre-cleared by centrifugation at 18,000 g for 15 min at 4° C. Supernatants were collected, protein was quantitated using the Bradford assay and lysates were adjusted to 1 mg/ml protein. Capillary electrophoresis and western analysis conditions were carried out with manufacturer's reagents according to the user manual (ProteinSimple WESTM). Briefly, 5.6 μl of cell lysate was mixed with 1.4 μl fluorescent master mix and heated at 95° C. for 5 min. The samples, blocking reagent, wash buffer, DO-1 p53 antibody (0.5 μg/ml) and vinculin antibody (1:2000, R&D clone 728526), secondary antibody and chemiluminescent substrate were dispensed into the microplate provided by the manufacturer. […] The data was analyzed with inbuilt CompassTM software (ProteinsimpleTM). […]

[2] = cited from earlier work
[3] = Toxicity observed in the in vivo read-through study; details: 400 mg/kg intraperitoneal; mice sacrificed shortly after administration
Description: Methods for FIG. 8: Two million NCI-H1299 human non-small cell lung carcinoma cells stably expressing a TP53 expression construct bearing the R213X (TGA) nonsense mutation were implanted subcutaneously on the lower back of immunocompromised NRG (NOD-Rag1^null IL2rg^null) mice. […] 48 hours after the last injection, the mice were sacrificed and the amounts of truncated p53 and full-length p53 were determined by western analysis. […] Vinculin was used as a protein loading control.

Compound: CC(=O)O[C@]1(C(C)=O)CC[C@H]2[C@@H]3C[C@H](C)C4=CC(=O)CC[C@]4(C)[C@H]3CC[C@@]21C [Medroxy pro, Medroxyprogesterone acetate]
- read-through activity of steroid alone [1]: no read-through activity

Compound: Gentamicin [reference compound]
- nephrotoxicity and ototoxicity ([2]; in vivo): nephrotoxic and ototoxic
- toxicity [3]: induced acute toxicity

Compound: CN[C@@H]1[C@@H](O)[C@@H](O[C@@H]2[C@@H](O)[C@H](O[C@H]3O[C@H]([C@@H](C)N)CC[C@H]3N)[C@@H](N)C[C@H]2N)OC[C@]1(C)O [Gentamicin C2]
- nephrotoxicity of the major gentamicins ([2]; Kohlhepp S. J. et al. 1984): nephrotoxicity was caused mainly by C2

— patent publication US20180258123A1, “Suppressors of Premature Termination Codons as Therapeutics and Methods for Their Use” (The University of British Columbia, priority 2015, published 2018)
